Data published in US11634436B2, “Pyridine lactam compounds and methods of use thereof” (Genentech, Inc., priority 2018, dated 2023).

Target: T1, human RIP1 kinase domain (2-375) (Homo sapiens, UniProt Q13546)
T1 construct: Purified human RIP1 kinase domain (2-375) (50 nM) derived from a baculovirus-infected insect cell expression system; made in house; host or cells: baculovirus-infected insect cells
T1 sequence (Q13546 2-375): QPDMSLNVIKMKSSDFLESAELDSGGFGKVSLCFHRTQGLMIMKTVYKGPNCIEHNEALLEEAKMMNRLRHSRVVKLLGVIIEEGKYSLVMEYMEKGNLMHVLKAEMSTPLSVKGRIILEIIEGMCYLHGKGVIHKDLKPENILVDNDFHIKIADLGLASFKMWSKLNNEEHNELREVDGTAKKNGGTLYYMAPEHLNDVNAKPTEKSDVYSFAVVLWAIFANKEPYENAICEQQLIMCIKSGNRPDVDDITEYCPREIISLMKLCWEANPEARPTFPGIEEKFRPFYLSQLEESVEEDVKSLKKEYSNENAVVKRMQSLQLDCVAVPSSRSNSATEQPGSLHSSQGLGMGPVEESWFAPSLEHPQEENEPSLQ
Assay: RIP1 kinase inhibition biochemical assay (Transcreener ADP, fluorescence polarization)
Conditions: tight-binding apparent inhibition constant (Ki app, Morrison equation); 50 nM enzyme, 50 uM ATP, 2 hours incubation
Protocol: RIP1 Kinase Inhibition Assays (Biochemical Assay)
The compounds of the present invention were tested for their capacity to inhibit RIP1K activity as described below.
Enzyme assay: The ability of the receptor interacting protein kinase (RIPK1) to catalyze the hydrolysis of adenosine-5′-triphosphate (ATP) is monitored using the Transcreener ADP (adenosine-5′-diphosphate) assay (BellBrook Labs). Purified human RIP1 kinase domain (2-375) (50 nM) derived from a baculovirus-infected insect cell expression system is incubated with test compounds for 2 hours in 50 mM Hepes buffer (pH 7.5) containing 30 mM MgCl2, 1 mM dithiothreitol, 50 uM ATP, 0.002% Brij-35, and 0.5% dimethyl sulfoxide (DMSO). Reactions are quenched by the addition of 1× Bell Brooks Stop buffer B (20 mM Hepes (ph7.5), 40 mM ethylenediaminetetraacetic acid and 0.02% Brij-35) containing an additional 12 mM EDTA and 55 ug/mL ADP2 antibody and 4 nM ADP-AlexaFluor® 633 tracer. The tracer bound to the antibody is displaced by the ADP generated during the RIP1K reaction, which causes a decrease in fluorescence polarization that is measured by laser excitation at 633 nm with a FP microplate reader M1000. Fractional activity was plotted against test article concentration. Using Genedata Screener software (Genedata; Base1, Switzerland), the data were fit to the tight-binding apparent inhibition constant (Ki^app) Morrison equation [Williams, J. W. and Morrison, J. F. (1979) The kinetics of reversible tight-binding inhibition. Methods Enzymol 63: 437-67]. The following equation was used to calculate fractional activity and Ki^app:
[formula] where [E]T and [I]T are the total concentrations of active enzyme and test article, respectively.
Exemplary compounds of the present invention are provided in Table 1 along with their physiochemical characterization and in vitro RIP1 kinase inhibitory activity data. “Method” in the first column of each table refers to the synthetic method(s) used to prepare each compound as shown in the Examples above. In certain examples, chiral column retention times (min) are provided for certain stereoisomers. Unless otherwise specified, the stereochemistry shown in each structure represents relative configuration of a single stereoisomer, and absolute configuration (i.e., “R” and/or “S”) is arbitrarily assigned. In some embodiments, where the Method is described to include the separation of stereoisomers, a single stereoisomer of a compound of Table 1 is provided.

Row | Structure (SMILES) | Ki [nM]
1 | CN1C(=O)[C@@H](NC(=O)c2cc3n(n2)CCO[C@H]3c2ccccc2F)COc2cccnc21 (single isomer, unassigned) [Example 3] | 24
2 | CN1C(=O)[C@@H](NC(=O)c2cc3n(n2)[C@H](c2ccccc2)C[C@@H]3F)COc2cccnc21 (single isomer, unassigned) [Example 1] | 5.2
3 | CN1C(=O)[C@@H](NC(=O)c2cc3n(n2)[C@@H](c2ccccc2)C[C@H]3F)COc2ccccc21 (single isomer, unassigned) [Example 10] | 5400
4 | CN1C(=O)[C@@H](NC(=O)c2cc3n(n2)CCO[C@H]3c2ccccc2)COc2cccnc21 (single isomer, unassigned) [Example 5] | 19
5 | CN1C(=O)[C@@H](NC(=O)c2cc3n(n2)CCO[C@@H]3c2ccccc2F)COc2cccnc21 (single isomer, unassigned) [Example 4] | 950
6 | C[C@H]1Oc2cccnc2N(C)C(=O)[C@H]1NC(=O)c1cc2n(n1)CCO[C@H]2c1ccccc1 [Example 6, (4S)-4-phenyl-N-[(2R,3S)-2,5-dimethyl-4-oxo-2,3-dihydropyrido[3,2-b][1,4]oxazepin-3-yl]-6,7-dihydro-4H-pyrazolo[5,1-c][1,4]oxazine-2-carboxamide] | 7
7 | [2H]C([2H])([2H])N1C(=O)[C@@H](NC(=O)c2cc3n(n2)CCO[C@H]3c2ccccc2)COc2cccnc21 [Example 7, (4S)-4-phenyl-N-[(3S)-4-oxo-5-(trideuteriomethyl)-2,3-dihydropyrido[3,2-b][1,4]oxazepin-3-yl]-6,7-dihydro-4H-pyrazolo[5,1-c][1,4]oxazine-2-carboxamide] | 28
8 | CN1C(=O)[C@@H](NC(=O)c2cc3n(n2)[C@H](c2ccccc2)C[C@@H]3F)COc2ccccc21 (single isomer, unassigned) [Example 11] | 4.4

Results, then the compound that gave them:

Row | Ki [nM] | Structure (SMILES)
9 | 18 | CCC(F)(F)n1ncc2cnc(C(=O)N[C@H]3COc4cccnc4N(C)C3=O)nc21 [Example 8, 1-(1,1-difluoropropyl)-N-[(3S)-5-methyl-4-oxo-2,3-dihydropyrido[3,2-b][1,4]oxazepin-3-yl]pyrazolo [3,4-d]pyrimidine-6-carboxamide]
10 | 5 | CCC(F)(F)n1ncc2cnc(C(=O)N[C@H]3COc4cccnc4N(C)C3=O)cc21 [Example 12, 1-(1,1-difluoropropyl)-N-[(3S)-5-methyl-4-oxo-2,3-dihydropyrido[3,2-b][1,4]oxazepin-3-yl]pyrazolo [4,3-c]pyridine-6-carboxamide]
11 | 14 | CC(C)n1ncc2cnc(C(=O)N[C@H]3COc4cccnc4N(C)C3=O)nc21 [Example 2, 1-isopropyl-N-[(3S)-5-methyl-4-oxo-2,3-dihydropyrido[3,2-b][1,4]oxazepin-3-yl]pyrazolo[3,4-d]pyrimidine-6-carboxamide]
12 | 11 | CN1C(=O)[C@@H](NC(=O)c2ncc3cnn(C4CCCC4)c3n2)COc2cccnc21 [Example 9, 1-cyclopentyl-N-[(3S)-5-methyl-4-oxo-2,3-dihydropyrido[3,2-b][1,4]oxazepin-3-yl]pyrazolo [3,4-d]pyrimidine-6-carboxamide]
